Measured values: PMC7307906, “Macrocyclic Modalities Combining Peptide Epitopes and Natural Product Fragments” (Journal of the American Chemical Society, 2020)
Each block holds one molecule with its values, some of them ahead of it.

What was measured:
human MC4R [1] = target: T1, human MC4R (Homo sapiens, UniProt P32245); experiment: cAMP assay (LANCE) in T-Rex-293 cells expressing MC4R; format: cell-based; settings: for EC50: cAMP assay, mean (± SEM) of at least three independent experiments, read-out: EC50 hMC4R cAMP; for % Effect hMC4R cAMP: Emax (curve plateau), relative to NDP-α-MSH, NA = No Activity detected, threshold 20% effect
T1 construct: expressed in transfected cells

human MC4R [2] = target: T1, human MC4R; experiment: Melanocortin receptor radioligand binding (SPA, [125I]-NDP-α-MSH displacement), MC4R; settings: competitive binding, mean (± SEM) of at least three independent experiments, read-out: IC50 hMC4R binding
human MC3R [3] = target: T2, human MC3R (Homo sapiens, UniProt P41968); experiment: cAMP assay (LANCE) in T-Rex-293 cells expressing MC3R; format: cell-based; settings: for EC50: cAMP assay, mean (± SEM) of at least three independent experiments, read-out: EC50 hMC3R cAMP; for % Effect hMC3R cAMP: Emax (curve plateau), relative to NDP-α-MSH, NA = No Activity detected, threshold 20% effect
T2 construct: expressed in transfected cells

human MC3R [4] = target: T2, human MC3R; experiment: Melanocortin receptor radioligand binding (SPA, [125I]-NDP-α-MSH displacement), MC3R; settings: competitive binding, mean (± SEM) of at least three independent experiments, read-out: IC50 hMC3R binding
human MC1R [5] = target: T3, human MC1R (Homo sapiens, UniProt Q01726); experiment: Melanocortin receptor radioligand binding (SPA, [125I]-NDP-α-MSH displacement), MC1R; settings: competitive binding, mean (± SEM) of at least three independent experiments, read-out: IC50 hMC1R binding
T3 construct: expressed in transfected cells

human MC5R = target: T4, human MC5R (Homo sapiens, UniProt P33032); experiment: Melanocortin receptor radioligand binding (SPA, [125I]-NDP-α-MSH displacement), MC5R; settings: competitive binding, [125I]-NDP-α-MSH; mean (± SEM) of at least three independent experiments; read-out: IC50 hMC5R binding
T4 construct: expressed in transfected cells; host or cells: HEK293-6E suspension cells, transient expression; membranes

human MC1R [6] = target: T3, human MC1R; experiment: cAMP assay (LANCE) in T-Rex-293 cells expressing MC1R; format: cell-based; settings: for % Effect hMC1R cAMP at 10 µM: % effect at 10 µM, compounds not reaching an upper plateau (#); for EC50: cAMP assay, mean (± SEM) of at least three independent experiments, read-out: EC50 hMC1R cAMP; for Emax: T-REx-293, read-out: % Effect hMC1R cAMP

T1 sequence (P32245 whole entry): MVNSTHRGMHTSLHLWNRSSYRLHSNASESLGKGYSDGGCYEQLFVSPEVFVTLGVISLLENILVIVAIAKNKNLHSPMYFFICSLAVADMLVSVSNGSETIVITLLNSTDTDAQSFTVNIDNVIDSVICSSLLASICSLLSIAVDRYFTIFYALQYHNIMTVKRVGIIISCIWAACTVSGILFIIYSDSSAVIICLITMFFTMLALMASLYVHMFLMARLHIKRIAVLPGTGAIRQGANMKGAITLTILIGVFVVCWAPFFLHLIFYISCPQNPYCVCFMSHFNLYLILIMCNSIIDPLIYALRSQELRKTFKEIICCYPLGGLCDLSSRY
T2 sequence (P41968 whole entry): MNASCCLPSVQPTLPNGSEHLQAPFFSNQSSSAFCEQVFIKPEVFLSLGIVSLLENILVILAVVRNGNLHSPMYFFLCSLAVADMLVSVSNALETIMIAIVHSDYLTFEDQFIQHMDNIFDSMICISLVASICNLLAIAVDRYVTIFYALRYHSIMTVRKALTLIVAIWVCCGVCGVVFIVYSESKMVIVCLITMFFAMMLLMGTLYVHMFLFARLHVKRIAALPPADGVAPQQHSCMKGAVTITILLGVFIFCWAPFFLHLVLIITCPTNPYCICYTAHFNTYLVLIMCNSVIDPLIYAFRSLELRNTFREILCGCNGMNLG
T4 sequence (P33032 whole entry): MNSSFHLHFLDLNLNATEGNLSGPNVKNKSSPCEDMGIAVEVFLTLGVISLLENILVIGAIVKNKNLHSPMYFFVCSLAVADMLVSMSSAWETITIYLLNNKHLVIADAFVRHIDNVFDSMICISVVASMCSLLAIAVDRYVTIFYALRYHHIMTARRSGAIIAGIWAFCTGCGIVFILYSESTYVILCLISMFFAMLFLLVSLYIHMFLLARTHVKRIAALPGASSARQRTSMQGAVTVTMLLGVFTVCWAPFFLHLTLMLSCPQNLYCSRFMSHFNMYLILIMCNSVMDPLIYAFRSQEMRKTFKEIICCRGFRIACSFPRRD
T3 sequence (Q01726 whole entry): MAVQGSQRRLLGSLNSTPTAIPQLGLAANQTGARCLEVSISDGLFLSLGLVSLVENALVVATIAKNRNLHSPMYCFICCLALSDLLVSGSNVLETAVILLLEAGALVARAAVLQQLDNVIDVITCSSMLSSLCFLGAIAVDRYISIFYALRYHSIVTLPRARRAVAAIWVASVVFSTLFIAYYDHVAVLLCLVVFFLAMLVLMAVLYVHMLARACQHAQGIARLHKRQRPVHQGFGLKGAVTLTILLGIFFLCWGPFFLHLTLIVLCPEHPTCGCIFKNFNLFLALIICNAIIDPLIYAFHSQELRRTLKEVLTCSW

SMILES: CC(=O)N[C@@H](CCCNC(=N)N)C(=O)N[C@H]1CSSC[C@@H](C(N)=O)NC(=O)[C@H](Cc2c[nH]c3ccccc23)NC(=O)[C@H](CCCNC(=N)N)NC(=O)[C@@H](Cc2ccccc2)NC(=O)[C@H](Cc2c[nH]cn2)NC(=O)[C@@H](C)NC1=O [RM493, reference compound]
% Effect hMC4R cAMP (human MC4R [1]): 100% | % Effect hMC3R cAMP (human MC3R [3]): 98% | IC50 (human MC5R): 1.8 ± 0.3 µM | Emax (human MC1R [6]): 96%

SMILES: CN1C(=O)[C@@H]2N[C@H](c3ccc(cc3)C(=O)NCCCC[C@@H](C(=O)NCC(N)=O)NC(=O)[C@H](CC(N)=O)NC(=O)[C@H](Cc3ccccc3)NC(=O)[C@H](Cc3ccccc3)NC(=O)[C@H](CCCNC(=N)N)NC(=O)[C@@H]1Cc1ccccc1)[C@@H]1C(=O)N(c3ccccc3)C(=O)[C@@H]12 [J3-minor*, [ II-FRFFNK ]G]
EC50 (human MC4R [1]): > 100 µM | IC50 (human MC4R [2]): 17 ± 2 µM | EC50 (human MC3R [3]): > 100 µM | IC50 (human MC3R [4]): 21 ± 1 µM | IC50 (human MC1R [5]): 13 ± 1 µM | IC50 (human MC5R): 6.2 ± 0.5 µM | EC50 (human MC1R [6]): > 100 µM

SMILES: CN1C(=O)[C@@H]2N[C@H](c3ccc(cc3)C(=O)NCCCC[C@@H](C(=O)NCC(N)=O)NC(=O)[C@H](CC(N)=O)NC(=O)[C@@H](Cc3ccccc3)NC(=O)[C@@H](Cc3ccccc3)NC(=O)[C@H](CCCNC(=N)N)NC(=O)[C@@H]1Cc1ccccc1)[C@@H]1C(=O)N(c3ccccc3)C(=O)[C@@H]12 [K3-major, [II-FRffNK ]G]
EC50 (human MC4R [1]): > 10 µM | IC50 (human MC4R [2]): > 10 µM | EC50 (human MC3R [3]): > 10 µM | IC50 (human MC3R [4]): > 10 µM | IC50 (human MC1R [5]): > 10 µM | IC50 (human MC5R): 4.2 ± 0.1 µM | Emax (human MC1R [6]): 42% | EC50 (human MC1R [6]): > 10 µM

SMILES: COc1ccc(N2C(=O)[C@@H]3[C@H](C2=O)[C@H]2N[C@@H]3c3ccc(cc3)C(=O)NCCCC[C@@H](C(=O)NCC(N)=O)NC(=O)[C@H](CC(N)=O)NC(=O)[C@@H](Cc3ccccc3)NC(=O)[C@@H](Cc3ccccc3)NC(=O)[C@H](CCCNC(=N)N)NC(=O)[C@H](Cc3ccccc3)N(C)C2=O)cc1 [K4-major, [III-FRffNK ]G]
% Effect hMC4R cAMP (human MC4R [1]): 66% | EC50 (human MC4R [1]): 3.7 ± 0.2 µM | IC50 (human MC4R [2]): > 100 µM | % Effect hMC3R cAMP (human MC3R [3]): 26% | EC50 (human MC3R [3]): 6.4 ± 1.1 µM | IC50 (human MC3R [4]): 57 ± 1 µM | IC50 (human MC1R [5]): 58 ± 1 µM | IC50 (human MC5R): 16 ± 1 µM | Emax (human MC1R [6]): 85% | EC50 (human MC1R [6]): 3.9 ± 0.5 µM

SMILES: CN1C(=O)[C@H]2N[C@@H](c3ccc(cc3)C(=O)NCCCC[C@@H](C(=O)NCC(N)=O)NC(=O)[C@H](CC(N)=O)NC(=O)[C@H](Cc3ccccc3)NC(=O)[C@H](Cc3ccccc3)NC(=O)[C@H](CCCNC(=N)N)NC(=O)[C@@H]1Cc1ccccc1)[C@H]1C(=O)N(c3ccccc3)C(=O)[C@H]12 [J3-major*, [ II-FRFFNK ]G]
EC50 (human MC4R [1]): > 100 µM | IC50 (human MC4R [2]): > 100 µM | EC50 (human MC3R [3]): > 100 µM | IC50 (human MC3R [4]): > 100 µM | IC50 (human MC1R [5]): 78 ± 2 µM | IC50 (human MC5R): 54 ± 6 µM | Emax (human MC1R [6]): 63% | EC50 (human MC1R [6]): 14 ± 5 µM

SMILES: C[C@@H]1NC(=O)[C@H](CC(N)=O)NC(=O)[C@@H](Cc2ccccc2)NC(=O)[C@@H](Cc2ccccc2)NC(=O)[C@H](CCCNC(=N)N)NC(=O)[C@H](Cc2ccccc2)N(C)C(=O)[C@@H]2N[C@H](c3ccc(cc3)C(=O)NCCCC[C@@H](C(=O)N[C@@H](Cc3ccc(O)cc3)C(N)=O)NC(=O)[C@H](Cc3ccccc3)NC1=O)[C@@H]1C(=O)N(C)C(=O)[C@@H]12 [C1-major, [I-FRffNAFK ]Y]
EC50 (human MC4R [1]): > 100 µM | IC50 (human MC4R [2]): 26 ± 2 µM | EC50 (human MC3R [3]): > 100 µM | IC50 (human MC3R [4]): 36 ± 1 µM | IC50 (human MC1R [5]): 23 ± 1 µM | IC50 (human MC5R): 13 ± 1 µM | Emax (human MC1R [6]): 47% | EC50 (human MC1R [6]): 1.8 ± 0.3 µM

Continued, values first:

EC50 (human MC4R [1]): > 10 µM | IC50 (human MC4R [2]): > 10 µM | EC50 (human MC3R [3]): > 10 µM | IC50 (human MC3R [4]): > 10 µM | IC50 (human MC1R [5]): > 10 µM | IC50 (human MC5R): > 10 µM | % Effect hMC1R cAMP at 10 µM (human MC1R [6]): 33% | EC50 (human MC1R [6]): > 10 µM
SMILES: CN1C(=O)[C@H]2N[C@@H](c3ccc(cc3)C(=O)NCCCC[C@@H](C(=O)N[C@@H](Cc3ccc(O)cc3)C(N)=O)NC(=O)[C@H](Cc3ccccc3)NC(=O)[C@H](Cc3ccccc3)NC(=O)[C@H](CCCNC(=N)N)NC(=O)[C@@H]1Cc1ccccc1)[C@H]1C(=O)N(c3ccccc3)C(=O)[C@H]12 [N1-major*, [II-FRFFK ]Y]

Emax (human MC1R [6]): 36%
SMILES: CN1C(=O)[C@@H]2N[C@H](c3ccc(cc3)C(=O)NCCCC[C@@H](C(=O)NCC(N)=O)NC(=O)[C@H](Cc3ccccc3)NC(=O)[C@H](Cc3ccccc3)NC(=O)[C@H](CCCNC(=N)N)NC(=O)[C@@H]1Cc1ccccc1)[C@@H]1C(=O)N(c3ccccc3)C(=O)[C@@H]12 [N2-minor*, [II-FRFFK ]G]

EC50 (human MC4R [1]): > 100 µM | IC50 (human MC4R [2]): > 100 µM | EC50 (human MC3R [3]): > 100 µM | IC50 (human MC3R [4]): > 100 µM | IC50 (human MC1R [5]): > 100 µM | IC50 (human MC5R): 38 ± 2 µM | Emax (human MC1R [6]): 46% | EC50 (human MC1R [6]): 14 ± 4 µM
SMILES: CN1C(=O)[C@H]2N[C@@H](c3ccc(cc3)C(=O)NCCCC[C@@H](C(=O)NCC(N)=O)NC(=O)[C@H](Cc3ccccc3)NC(=O)[C@H](Cc3ccccc3)NC(=O)[C@H](CCCNC(=N)N)NC(=O)[C@@H]1Cc1ccccc1)[C@H]1C(=O)N(c3ccccc3)C(=O)[C@H]12 [N2-major*, [II-FRFFK ]G]

EC50 (human MC4R [1]): > 10 µM | IC50 (human MC4R [2]): > 10 µM | EC50 (human MC3R [3]): > 10 µM | IC50 (human MC3R [4]): > 10 µM | IC50 (human MC1R [5]): > 10 µM | IC50 (human MC5R): > 10 µM | % Effect hMC1R cAMP at 10 µM (human MC1R [6]): 21% | EC50 (human MC1R [6]): > 10 µM
SMILES: CN1C(=O)[C@@H]2[C@H](C1=O)[C@H]1N[C@@H]2C(=O)N(C)[C@@H](Cc2ccccc2)C(=O)N[C@@H](CCCNC(=N)N)C(=O)N[C@H](Cc2ccccc2)C(=O)N[C@H](Cc2ccccc2)C(=O)N[C@H](C(=O)N[C@@H](Cc2ccc(O)cc2)C(N)=O)CCCCNC(=O)c2ccc1cc2 [O1-minor, [I-FRffK ]Y]

Emax (human MC1R [6]): 56%
SMILES: CN1C(=O)[C@@H]2N[C@H](c3ccc(cc3)C(=O)NCCCC[C@@H](C(=O)N[C@@H](Cc3ccc(O)cc3)C(N)=O)NC(=O)[C@H](Cc3ccccc3)NC(=O)[C@H](Cc3ccccc3)NC(=O)[C@H](CCCNC(=N)N)NC(=O)[C@@H]1Cc1ccccc1)[C@@H]1C(=O)N(c3ccccc3)C(=O)[C@@H]12 [N1-minor*, [II-FRFFK ]Y]
